Test results from ChEMBL document CHEMBL3639129, “Compounds having CRTH2 antagonist activity” (2013).

Biological target: T1, Prostaglandin D2 receptor 2 (Homo sapiens, UniProt Q9Y5Y4)
T1 sequence (Q9Y5Y4 whole entry): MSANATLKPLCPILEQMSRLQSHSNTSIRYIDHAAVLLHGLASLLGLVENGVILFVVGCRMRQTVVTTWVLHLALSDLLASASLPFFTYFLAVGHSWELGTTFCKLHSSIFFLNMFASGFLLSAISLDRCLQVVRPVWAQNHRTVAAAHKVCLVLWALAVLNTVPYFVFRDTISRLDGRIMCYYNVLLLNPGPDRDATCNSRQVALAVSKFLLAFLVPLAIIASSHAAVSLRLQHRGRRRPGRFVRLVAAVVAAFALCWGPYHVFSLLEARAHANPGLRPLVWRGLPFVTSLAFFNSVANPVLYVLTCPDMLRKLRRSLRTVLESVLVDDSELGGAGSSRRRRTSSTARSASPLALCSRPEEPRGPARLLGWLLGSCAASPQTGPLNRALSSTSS
Assay: Radioligand Binding Assay: Radioligand binding assay using CRTH2.

Ki	Compound
7 nM	Cc1c(Cc2cccnc2S(=O)(=O)c2ccc(Cl)cc2)c2cc(F)ccc2n1CC(=O)O
2 nM	Cc1c(Cc2cccnc2S(=O)(=O)c2ccc(F)cc2)c2cc(F)ccc2n1CC(=O)O
